# Read-outs that look alike come from different tables or passages of the source.
# Experiments:
# [1] = test system: LPS-induced PGE2 release; test: Ex vivo LPS-induced PGE2 release in whole blood, single dose crossover versus celecoxib (Example 1, Part 3); parameters: species or system human
# Procedure: Part 2 was a single-dose, double-blind study in a single cohort of elderly subjects. Part 3 was an open-label, randomized, 2-period, single-dose, crossover study to compare effects of the highest tolerated Compound I dose and celecoxib on prostanoid metabolism in healthy adult subjects.
# In Part 3, Compound I was administered at a dose of 1000 mg after fasting. All subjects received Compound I and all subjects received 400 mg celecoxib in a cross-over study design.
# In Parts 1a and 3, whole blood samples were incubated and analyzed for lipopolysaccharide (LPS)-induced prostaglandin PGE2 release. In Part 3, urine samples were collected for analysis of prostanoid metabolites.
# Summary statistics were presented for the PK, pharmacodynamic (PD) and safety data, as appropriate. PK parameters following single oral doses of Compound I were determined from the plasma concentrations of Compound I using non-compartmental procedures in WinNonlin Dose proportionality was assessed using a power model, with tmax analyzed using the Kruskal-Wallis test. The effect of food on PK was assessed at the 100 and 250 mg doses using a mixed effects model. The effect of age on PK was assessed for elderly (>65 years) versus non-elderly (<65 years) at the 250 mg dose level in Parts 1a and 2, using an analysis of variance (ANOVA) with age as a fixed effect. For PD analyses, percent decrease of ex vivo LPS-induced PGE2 release was calculated. For Part 3, urinary excretion of prostanoid metabolites was also evaluated. The data are presented as absolute, as well as creatinine normalized urinary biomarker amounts, along percent change from baseline over a definite time interval. The percent change from baseline in urinary biomarkers was assessed using an analysis of covariance (ANCOVA) model
# Percent change in ex vivo LPS-induced PGE2 release in whole blood is the pharmacodynamic (PD) biomarker. The PGE2 levels in whole blood were estimated using the homogeneous time-resolved fluorescence method.
# Concentrations below the limit of quantification were treated as ½ the lower limit of quantification for calculation.
# Time points where unstimulated prostaglandin E2 (PGE2) concentration was more than 3 times greater than the mean unstimulated PGE2 and equal to or greater than ½ baseline value for an individual subject were not included in the calculation of % inhibition.
# [2] = test system: LPS-induced PGE2 release; test: Ex vivo LPS-induced PGE2 release in whole blood, multiple oral doses for 28 days (Example 2, Part 1); parameters: species or system human; settings: for EAUC0-24 h, Difference in LS means (Compound I − placebo) / EAUC0-24 h, LS means / ETmax (time to reach maximum effect), Median / ETmax, median difference from placebo / Eavg0-24 h, Difference in LS means (Compound I − placebo) / Epeak, Difference in LS means (Compound I − placebo) / Emax at 25 mg / Emax at 75 mg / Emax at 130 mg / inhibition at 25 mg / inhibition at 75 mg / inhibition at 130 mg: healthy subjects; for Emax at 25 mg / Emax at 75 mg / Emax at 130 mg / inhibition at 25 mg / inhibition at 75 mg / inhibition at 130 mg: Homo sapiens, po; for Emax at 25 mg / Emax at 75 mg / Emax at 130 mg: read-out: Epeak (maximum effect), LS means; for inhibition at 25 mg / inhibition at 75 mg / inhibition at 130 mg: read-out: Eavg0-24 h (average PGE2 inhibition over 24 hours), LS means
# Procedure: Part 1 consisted of a MAD, double-blind, sequential-group study in healthy subjects. Twenty-four adult male and female subjects were recruited into 3 cohorts. Subjects were enrolled in a sequential manner in cohorts of 8, each randomized in a ratio of 6:2, to receive Compound I or placebo, respectively, for a duration of 28 days. Three dose levels of Compound I (25, 75 and 130 mg) were studied in Cohorts A, B and C, respectively. For each cohort in Part 1, the planned Compound I, qd dosing occurred in the fasted state in the morning on Days 1 to 28, both inclusive. Subjects in each cohort started dosing on the same day, with no less than 5 minutes dose interval between subjects on Day 1.
# Concentrations below the limit of quantification were treated as ½ the lower limit of quantification for subsequent calculations.
# Time points where unstimulated PGE2 levels were 3 times greater than the mean of unstimulated PGE2 and greater than or equal to half of the baseline for a particular subject were not included in the calculation of these parameters.
# Baseline is the mean of Day −1 and pre-dose LPS stimulated PGE2.
# Abbreviations: CI=confidence interval; EAUC0-24h=area under the effect-time curve from time zero to 24 hours postdose; Eavg0-24h=the average PGE2 inhibition over 24 hours; Epeak=maximum effect; ETmax=time to reach maximum effect; LS=least squares; N=number of subjects; PGE2=prostaglandin E2; qd=once daily.
# ^a Median, median difference from placebo and approximate 95% CI.
# [3] = Compound I 1000 mg versus celecoxib 400 mg, single oral doses, fasted
# [4] = single oral dose 1000 mg, fasted healthy subjects
smiles,measurement,setting,value
"CC(C)(C)C(=O)NCc1ccc(Cl)c(-c2nn(-c3ccc(C(F)(F)F)cc3)c(=O)[nH]2)c1 [Compound I, N-(4-chloro-3-(5-oxo-1-(4-(trifluoromethyl)phenyl)-4,5-dihydro-1H-1,2,4-triazol-3-yl)benzyl)pivalamide]","EAUC0-24 h, Difference in LS mean versus celecoxib",[1]; [3],7.89 % · h
same,"EAUC0-336 h, Difference in LS mean versus celecoxib",[1]; [3],19024 % · h
same,"ETmax, Median difference versus celecoxib",[1]; [3],6.00 h
same,"Epeak, Difference in LS mean versus celecoxib",[1]; [3],−1.87%
same,"EAUC0-24 h, LS mean",[1]; [4],1428 % · h
same,"EAUC0-336 h, LS mean",[1]; [4],8866 % · h
same,"ETmax (time to reach maximum effect), Median",[1]; [4],12.0 h
same,"Epeak (maximum % inhibition), LS mean",[1]; [4],87.2%
same,inhibition of LPS-induced PGE2 concentration,"[1]; single oral dose 1000 mg, maintained for at least 168 hours post-dose",approximately 50%
same,"EAUC0-24 h, Difference in LS means (Compound I − placebo)","[2]; Day 1, 25 mg qd",1225 % · h
same,"EAUC0-24 h, LS means","[2]; Day 1, 25 mg qd",1562 % · h
same,"ETmax (time to reach maximum effect), Median","[2]; Day 1, 25 mg qd",6.00 h
same,"ETmax, median difference from placebo","[2]; Day 1, 25 mg qd",-6.00 h
same,"Eavg0-24 h, Difference in LS means (Compound I − placebo)","[2]; Day 1, 25 mg qd",51.6%
same,"Epeak, Difference in LS means (Compound I − placebo)","[2]; Day 1, 25 mg qd",35.0%
same,"EAUC0-24 h, Difference in LS means (Compound I − placebo)","[2]; Day 1, 75 mg qd",1218 % · h
same,"EAUC0-24 h, LS means","[2]; Day 1, 75 mg qd",1555 % · h
same,"ETmax (time to reach maximum effect), Median","[2]; Day 1, 75 mg qd",23.8 h
same,"ETmax, median difference from placebo","[2]; Day 1, 75 mg qd",5.77 h
same,"Eavg0-24 h, Difference in LS means (Compound I − placebo)","[2]; Day 1, 75 mg qd",51.2%
same,"Epeak, Difference in LS means (Compound I − placebo)","[2]; Day 1, 75 mg qd",26.7%
same,"EAUC0-24 h, Difference in LS means (Compound I − placebo)","[2]; Day 1, 130 mg qd",1032 % · h
same,"EAUC0-24 h, LS means","[2]; Day 1, 130 mg qd",1369 % · h
same,"ETmax (time to reach maximum effect), Median","[2]; Day 1, 130 mg qd",4.00 h
same,"ETmax, median difference from placebo","[2]; Day 1, 130 mg qd",-10.0 h
same,"Eavg0-24 h, Difference in LS means (Compound I − placebo)","[2]; Day 1, 130 mg qd",43.5%
same,"Epeak, Difference in LS means (Compound I − placebo)","[2]; Day 1, 130 mg qd",22.3%
same,"EAUC0-24 h, Difference in LS means (Compound I − placebo)","[2]; Day 10, 25 mg qd",1461 % · h
same,"EAUC0-24 h, LS means","[2]; Day 10, 25 mg qd",1443 % · h
same,"ETmax (time to reach maximum effect), Median","[2]; Day 10, 25 mg qd",5.00 h
same,"ETmax, median difference from placebo","[2]; Day 10, 25 mg qd",-7.00 h
same,"Eavg0-24 h, Difference in LS means (Compound I − placebo)","[2]; Day 10, 25 mg qd",61.3%
same,"Epeak, Difference in LS means (Compound I − placebo)","[2]; Day 10, 25 mg qd",45.0%
same,"EAUC0-24 h, Difference in LS means (Compound I − placebo)","[2]; Day 10, 75 mg qd",1560 % · h
same,"EAUC0-24 h, LS means","[2]; Day 10, 75 mg qd",1542 % · h
same,"ETmax (time to reach maximum effect), Median","[2]; Day 10, 75 mg qd",12.0 h
same,"ETmax, median difference from placebo","[2]; Day 10, 75 mg qd",-0.0333 h
same,"Eavg0-24 h, Difference in LS means (Compound I − placebo)","[2]; Day 10, 75 mg qd",65.4%
same,"Epeak, Difference in LS means (Compound I − placebo)","[2]; Day 10, 75 mg qd",42.7%
same,"EAUC0-24 h, Difference in LS means (Compound I − placebo)","[2]; Day 10, 130 mg qd",1392 % · h
same,"EAUC0-24 h, LS means","[2]; Day 10, 130 mg qd",1374 % · h
same,"ETmax (time to reach maximum effect), Median","[2]; Day 10, 130 mg qd",4.00 h
same,"ETmax, median difference from placebo","[2]; Day 10, 130 mg qd",-6.03 h
same,"Eavg0-24 h, Difference in LS means (Compound I − placebo)","[2]; Day 10, 130 mg qd",58.4%
same,"Epeak, Difference in LS means (Compound I − placebo)","[2]; Day 10, 130 mg qd",40.9%
same,"EAUC0-24 h, Difference in LS means (Compound I − placebo)","[2]; Day 28, 25 mg qd",1281 % · h
same,"EAUC0-24 h, LS means","[2]; Day 28, 25 mg qd",1621 % · h
same,"ETmax (time to reach maximum effect), Median","[2]; Day 28, 25 mg qd",2.00 h
same,"ETmax, median difference from placebo","[2]; Day 28, 25 mg qd",-6.00 h
same,"Eavg0-24 h, Difference in LS means (Compound I − placebo)","[2]; Day 28, 25 mg qd",53.4%
same,"Epeak, Difference in LS means (Compound I − placebo)","[2]; Day 28, 25 mg qd",18.0%
same,"EAUC0-24 h, Difference in LS means (Compound I − placebo)","[2]; Day 28, 75 mg qd",1356 % · h
same,"EAUC0-24 h, LS means","[2]; Day 28, 75 mg qd",1696 % · h
same,"ETmax (time to reach maximum effect), Median","[2]; Day 28, 75 mg qd",10.0 h
same,"ETmax, median difference from placebo","[2]; Day 28, 75 mg qd",0.0333 h
same,"Eavg0-24 h, Difference in LS means (Compound I − placebo)","[2]; Day 28, 75 mg qd",56.4%
same,"Epeak, Difference in LS means (Compound I − placebo)","[2]; Day 28, 75 mg qd",21.2%
same,"EAUC0-24 h, Difference in LS means (Compound I − placebo)","[2]; Day 28, 130 mg qd",1192 % · h
same,"EAUC0-24 h, LS means","[2]; Day 28, 130 mg qd",1531 % · h
same,"ETmax (time to reach maximum effect), Median","[2]; Day 28, 130 mg qd",12.0 h
same,"ETmax, median difference from placebo","[2]; Day 28, 130 mg qd",0.177 h
same,"Eavg0-24 h, Difference in LS means (Compound I − placebo)","[2]; Day 28, 130 mg qd",49.6%
same,"Epeak, Difference in LS means (Compound I − placebo)","[2]; Day 28, 130 mg qd",13.9%
same,Emax at 25 mg,"[2]; 24 h, Day 1, 25 mg qd",90.4%
same,Emax at 75 mg,"[2]; 24 h, Day 1, 75 mg qd",82.1%
same,Emax at 130 mg,"[2]; 24 h, Day 1, 130 mg qd",77.8%
same,Emax at 25 mg,"[2]; 240 h, Day 10, 25 mg qd",83.7%
same,Emax at 75 mg,"[2]; 240 h, Day 10, 75 mg qd",81.4%
same,Emax at 130 mg,"[2]; 240 h, Day 10, 130 mg qd",79.6%
same,Emax at 25 mg,"[2]; 672 h, Day 28, 25 mg qd",84.2%
same,Emax at 75 mg,"[2]; 672 h, Day 28, 75 mg qd",87.4%
same,Emax at 130 mg,"[2]; 672 h, Day 28, 130 mg qd",80.1%
same,inhibition at 25 mg,"[2]; Day 1, 25 mg qd",65.7%
same,inhibition at 75 mg,"[2]; Day 1, 75 mg qd",65.4%
same,inhibition at 130 mg,"[2]; Day 1, 130 mg qd",57.6%
same,inhibition at 25 mg,"[2]; Day 10, 25 mg qd",60.6%
same,inhibition at 75 mg,"[2]; Day 10, 75 mg qd",64.7%
same,inhibition at 130 mg,"[2]; Day 10, 130 mg qd",57.6%
same,inhibition at 25 mg,"[2]; Day 28, 25 mg qd",67.5%
same,inhibition at 75 mg,"[2]; Day 28, 75 mg qd",70.6%
same,inhibition at 130 mg,"[2]; Day 28, 130 mg qd",63.8%
same,inhibition of ex-vivo LPS-induced PGE2 release (in words),"[2]; multiple oral doses 25 mg to 130 mg qd, Days 1, 10 and 28",marked drug-related inhibition
same,time by which maximal inhibition was reached,"[2]; post-dose on Day 1, each dose level (first sampling occasion)",≤ 30 min

# From patent publication US10758517B2, “mPGES-1 inhibitor for the treatment of osteoarthritis pain” (Glenmark Pharmaceuticals S.A., priority 2017, dated 2020)
